Molecular target: T1, P2Y12 receptor (Homo sapiens, UniProt Q9H244)
T1 construct: expressed in transfected cells; host or cells: CHO cells (membrane preparation)
Test: Functional inhibition of 2-Me-S-ADP induced P2Y12 signalling (35S-GTPγS binding, cell membranes)
Type: biochemical
Settings: 35S-GTPγS assay, membranes, EC80 concentration of 2-methyl-thio-adenosine diphosphate, 30° C. for 45 min; read-out: GTPγS (IC50 μM)
In short: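 Membranes (5 μg) from P2Y12-transfected CHO cells in pH 7.4 HEPES buffer with 10 μM GDP and saponin were stimulated with an EC80 of 2-methyl-thio-ADP plus compound and ^35S-GTPγS for 45 min at 30° C. Filter-retained ^35S-GTPγS was counted, normalised between agonist and no-agonist activity, and IC50 taken from a four-parameter fit.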

T1 sequence (Q9H244 whole entry): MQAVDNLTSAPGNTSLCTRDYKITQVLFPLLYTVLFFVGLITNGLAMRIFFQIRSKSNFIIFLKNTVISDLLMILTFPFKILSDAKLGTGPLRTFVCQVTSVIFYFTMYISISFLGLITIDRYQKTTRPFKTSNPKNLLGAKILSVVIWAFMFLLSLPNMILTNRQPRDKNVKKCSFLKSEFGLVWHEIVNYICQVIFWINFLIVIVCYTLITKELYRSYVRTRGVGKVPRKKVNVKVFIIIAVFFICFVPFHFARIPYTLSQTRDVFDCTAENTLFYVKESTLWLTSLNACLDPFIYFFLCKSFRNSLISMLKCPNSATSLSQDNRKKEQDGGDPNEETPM

Row | Structure (SMILES) | IC50
1 | CCOC(=O)c1cc(C#N)c(N2CCC(C(=O)NS(=O)(=O)Cc3ccc([Si](C)(C)C)cc3)CC2)nc1CN1CCCC1=O [Example 100, Ethyl 5-cyano-2-[(2-oxopyrrolidin-1-yl)methyl]-6-[4-({[4-(trimethylsilyl)benzyl]sulfonyl}carbamoyl)piperidin-1-yl]nicotinate] | 0.138 µM
2 | CCOC(=O)c1cc(C#N)c(N2CCC(C(=O)NS(=O)(=O)Cc3ccc(SC(F)(F)F)cc3)CC2)nc1CN1CCCCC1=O [Example 101, Ethyl 5-cyano-2-[(2-oxopiperidin-1-yl)methyl]-6-{4-[({4-[(trifluoromethyl)thio]benzyl}sulfonyl)carbamoyl]piperidin-1-yl}nicotinate] | 0.166 µM
3 | CCOC(=O)c1cc(C#N)c(N2CCC(C(=O)NS(=O)(=O)Cc3ccc(C(C)(C)C)cc3)CC2)nc1CN1CCCCC1=O [Example 103, Ethyl 6-(4-{[(4-tert-butylbenzyl)sulfonyl]carbamoyl}piperidin-1-yl)-5-cyano-2-[(2-oxopiperidin-1-yl)methyl]nicotinate] | 0.376 µM
4 | CCOC(=O)c1cc(Cl)c(N2CCC(C(=O)NS(=O)(=O)Cc3ccc(Cl)cc3)CC2)nc1SCCNC(C)=O [Example 104, Ethyl 2-[(2-acetamidoethyl)thio]-5-chloro-6-(4-{[(4-chlorobenzyl)sulfonyl]carbamoyl}piperidin-1-yl)nicotinate] | 0.057 µM
5 | CCOC(=O)c1cc(Cl)c(N2CCC(C(=O)NS(=O)(=O)Cc3ccccc3)CC2)nc1SCCNC(C)=O [Example 105, Ethyl 2-[(2-acetamidoethyl)thio]-6-{4-[(benzylsulfonyl)carbamoyl]piperidin-1-yl}-5-chloronicotinate] | 0.048 µM
6 | CCOC(=O)CCCc1nc(N2CCC(C(=O)NS(=O)(=O)Cc3ccccc3)CC2)c(C#N)cc1C(=O)OCC [Example 106, Ethyl 6-{4-[(benzylsulfonyl)carbamoyl]piperidin-1-yl}-5-cyano-2-(4-ethoxy-4-oxobutyl)nicotinate] | 0.066 µM
7 | CCOC(=O)CSc1nc(N2CCC(C(=O)NS(=O)(=O)Cc3ccc(F)cc3Cl)CC2)c(C#N)cc1C(=O)OCC [Example 108, Ethyl 6-(4-{[(2-chloro-4-fluorobenzyl)sulfonyl]carbamoyl}piperidin-1-yl)-5-cyano-2-[(2-ethoxy-2-oxoethyl)thio]nicotinate] | 0.072 µM
8 | CCOC(=O)c1cc(C#N)c(N2CCC(C(=O)NS(=O)(=O)Cc3ccccc3)CC2)nc1SCC(=O)OC(C)C [Example 111, Ethyl 6-{4-[(benzylsulfonyl)carbamoyl]piperidin-1-yl}-5-cyano-2-[(2-isopropoxy-2-oxoethyl)thio]nicotinate] | 0.016 µM
9 | CCOC(=O)c1cc(C#N)c(N2CCC(C(=O)NS(=O)(=O)Cc3ccccc3)CC2)nc1OCCn1cccc1 [Example 113, Ethyl 6-{4-[(benzylsulfonyl)carbamoyl]piperidin-1-yl}-5-cyano-2-[2-(1H-pyrrol-1-yl)ethoxy]nicotinate] | 0.05 µM
10 | CCOC(=O)c1cc(C#N)c(N2CCC(C(=O)NS(=O)(=O)Cc3ccccc3)CC2)nc1OCCN1CCCC1=O [Example 114, Ethyl 6-{4-[(benzylsulfonyl)carbamoyl]piperidin-1-yl}-5-cyano-2-[2-(2-oxopyrrolidin-1-yl)ethoxy]nicotinate] | 0.027 µM
11 | CCOC(=O)c1cc(C#N)c(N2CCC(C(=O)NS(=O)(=O)Cc3ccccc3)CC2)nc1CSCC(=O)O [Example 115, ({[6-{4-[(Benzylsulfonyl)carbamoyl]piperidin-1-yl}-5-cyano-3-(ethoxycarbonyl)pyridin-2-yl]methyl}thio)acetic acid] | 0.035 µM
12 | CCOC(=O)c1cc(C#N)c(N2CCC(C(=O)NS(=O)(=O)Cc3ccccc3)CC2)nc1CSCc1nccn1C [Example 116, Ethyl 6-{4-[(benzylsulfonyl)carbamoyl]piperidin-1-yl}-5-cyano-2-({[(1-methyl-1H-imidazol-2-yl)methyl]thio}methyl)nicotinate] | 1.05 µM
13 | CCOC(=O)c1cc(C#N)c(N2CCC(C(=O)NS(=O)(=O)Cc3ccccc3)CC2)nc1CSc1nccn1C [Example 118, Ethyl 6-{4-[(benzylsulfonyl)carbamoyl]piperidin-1-yl}-5-cyano-2-{[(1-methyl-1H-imidazol-2-yl)thio]methyl}nicotinate] | 0.052 µM
14 | CCOC(=O)c1cc(C#N)c(N2CCC(C(=O)NS(=O)(=O)Cc3ccccc3)CC2)nc1OCCCC(C)=O [Example 121, Ethyl 6-{4-[(benzylsulfonyl)carbamoyl]piperidin-1-yl}-5-cyano-2-[(4-oxopentyl)oxy]nicotinate] | 0.017 µM

The remaining molecules from weak to strong by IC50, led by results:

Row | IC50 | Structure (SMILES)
15 | 0.934 µM | CCOC(=O)c1cc(C#N)c(N2CCC(C(=O)NS(=O)(=O)Cc3ccc([Si](C)(C)C)cc3)CC2)nc1CN1CCCCC1=O [Example 102, Ethyl 5-cyano-2-[(2-oxopiperidin-1-yl)methyl]-6-[4-({[4-(trimethylsilyl)benzyl]sulfonyl}carbamoyl)piperidin-1-yl]nicotinate]
16 | 0.497 µM | CC(C)OC(=O)c1cc(C#N)c(N2CCC(C(=O)NS(=O)(=O)Cc3ccc([Si](C)(C)C)cc3)CC2)nc1CN1CCCC1=O [Example 99, Isopropyl 5-cyano-2-[(2-oxopyrrolidin-1-yl)methyl]-6-[4-({[4-(trimethylsilyl)benzyl]sulfonyl}carbamoyl)piperidin-1-yl]nicotinate]
17 | 0.062 µM | CCOC(=O)CSc1nc(N2CCC(C(=O)NS(=O)(=O)Cc3ccc(Cl)cc3Cl)CC2)c(C#N)cc1C(=O)OCC [Example 109, Ethyl 5-cyano-6-(4-{[(2,4-dichlorobenzyl)sulfonyl]carbamoyl}piperidin-1-yl)-2-[(2-ethoxy-2-oxoethyl)thio]nicotinate]
18 | 0.056 µM | CCOC(=O)CCc1nc(N2CCC(C(=O)NS(=O)(=O)Cc3ccccc3)CC2)c(C#N)cc1C(=O)OCC [Example 107, Ethyl 6-{4-[(benzylsulfonyl)carbamoyl]piperidin-1-yl}-5-cyano-2-(3-ethoxy-3-oxopropyl)nicotinate]
19 | 0.053 µM | CCOC(=O)CSc1nc(N2CCC(C(=O)NS(=O)(=O)CC3CCCC3)CC2)c(C#N)cc1C(=O)OCC [Example 110, Ethyl 5-cyano-6-(4-{[(cyclopentylmethyl)sulfonyl]carbamoyl}piperidin-1-yl)-2-[(2-ethoxy-2-oxoethyl)thio]nicotinate]
20 | 0.042 µM | CCOC(=O)c1cc(C#N)c(N2CCC(C(=O)NS(=O)(=O)Cc3ccccc3)CC2)nc1CSCCC(=O)OC [Example 119, Ethyl 6-{4-[(benzylsulfonyl)carbamoyl]piperidin-1-yl}-5-cyano-2-{[(3-methoxy-3-oxopropyl)thio]methyl}nicotinate]
21 | 0.035 µM | CCOC(=O)c1cc(C#N)c(N2CCC(C(=O)NS(=O)(=O)Cc3ccccc3)CC2)nc1CSc1nccs1 [Example 117, Ethyl 6-{4-[(benzylsulfonyl)carbamoyl]piperidin-1-yl}-5-cyano-2-[(1,3-thiazol-2-ylthio)methyl]nicotinate]
22 | 0.022 µM | CCOC(=O)c1cc(C#N)c(N2CCC(C(=O)NS(=O)(=O)Cc3ccccc3)CC2)nc1CCC(C)=O [Example 112, Ethyl 6-{4-[(benzylsulfonyl)carbamoyl]piperidin-1-yl}-5-cyano-2-(3-oxobutyl)nicotinate]
23 | 0.019 µM | CCOC(=O)c1cc(C#N)c(N2CCC(C(=O)NS(=O)(=O)Cc3ccccc3)CC2)nc1O[C@@H](C)C(=O)OCC [Example 120, Ethyl 6-{4-[(benzylsulfonyl)carbamoyl]piperidin-1-yl}-5-cyano-2-[(1S)-2-ethoxy-1-methyl-2-oxoethoxy]nicotinate]

Reference: US20080200448A1, “New Pyridine Analogues VIII 518” (ASTRAZENECA AB, priority 2007, published 2008)
